Assays:
[1] = test system: peripheral blood mononuclear cells from an ALS patient; experiment: TCR repertoire profiling by RNA sequencing pre- and post-therapy with etanercept; format: in vivo, human
From the text: (§1) FIGS. 23A & 23B depict the use of RNA-based T cell receptor sequencing to detect a widespread up- and down-regulation of T cell TCR specificities after therapy with the TNF-α inhibitor, etanercept. In FIG. 23, RNA was isolated from peripheral blood mononuclear cells from an ALS patient pre- and post-therapy with etanercept therapy. The RNA was subjected to TCR repertoire profiling, as previously described by Rosati E, Dowds C M, Liaskou E, Henriksen E K K, Karlsen T H, Franke A. Overview of methodologies for T-cell receptor repertoire analysis. BMC Biotechnol. 2017; 17(1): 61.
as §1, with “36A-36B” for “23A & 23B”, “depict” for “depict the”, “FIGS. 36A-36B,” for “FIG. 23,”

[2] = test system: human CD4+ and CD8+ T cells; experiment: RNA expression of T cell effector molecules after 3-day de-differentiation culture (Luminex Quantigene); format: cell-based; conditions: 3-day culture, bead:T cell 1:3, temsirolimus 1 μM, Vitamin D 0.1 or 1.0 nM; relative to control Th1/Tc1 culture
Method: (§2) At the end of the de-differentiation interval, cells were harvested, RNA was isolated, and RNA expression analysis was performed by Luminex Quantigene method. All results shown represent relative RNA expression, with results normalized to a value of 1.0 for the Th1/Tc1 control culture.

[3] = test system: human CD4+ and CD8+ T cells; experiment: RNA expression of de-differentiation transcription factors and IL-7 receptor alpha after 3-day culture (Luminex Quantigene); format: cell-based; conditions: bead:T cell 1:3, temsirolimus 1 μM, relative to control culture
Method: as §2

[4] = test system: human CD4+ and CD8+ T cells; experiment: RNA expression of Th1 transcription factors and HIF-1-α after 3-day culture (Luminex Quantigene); format: cell-based; conditions: bead:T cell 1:3, temsirolimus 1 μM, Vitamin D 0.1 to 1.0 nM, relative to control culture
Method: as §2

[5] = test system: human CD4+ and CD8+ T cells; experiment: Western blot for autophagy-related molecule p62 after 3-day de-differentiation culture; format: cell-based; conditions: 3-day culture, bead:T cell 1:3; temsirolimus 1.0 or 0.3 μM, Vitamin D 0.01-1.0 nM, Daclizumab 50 μg/ml as indicated
From the text: The level of autophagy can be determined in-part by the subsequent up-regulation of the autophagy substrate, p62, by western blot analysis.
After the 3-day culture interval, the T cells were harvested, and protein was isolated and subjected to western blot analysis for the autophagy-related gene, p62, and the housekeeping gene, Actin.

[6] = test system: human CD4+ and CD8+ T cells; experiment: Western blot for mTORC1-related molecule Raptor after 3-day de-differentiation culture; format: cell-based
From the text: After the 3-day culture interval, the T cells were harvested, and protein was isolated and subjected to western blot analysis for the mTORC1 complex protein, Raptor, and the housekeeping gene, Actin.

[7] = test system: human CD4+ and CD8+ T cells; experiment: Western blot for Raptor, Rictor, p70S6K and SGK1 after 3-day de-differentiation culture; format: cell-based; conditions: combination agent de-differentiation: temsirolimus 1 μM, Vitamin D 0.03 to 1.0 nM, Daclizumab 50 μg/ml; relative to control culture
From the text: After the 3-day culture interval, the T cells were harvested, and protein was isolated and subjected to western blot analysis for the mTORC1 complex protein, Raptor; the mTORC2 complex protein, Rictor; the post-mTORC1 protein p70S6K; the post-mTORC2 protein, SGK1; and the housekeeping gene, GAPDH.

[8] = test system: human CD4+ and CD8+ T cells; experiment: T cell yield at day 13 after de-differentiation and re-stimulation without inhibitors; format: cell-based
Method: After 10 days (13 days of total culture), the T cells were harvested, enumerated, and evaluated by flow cytometry. FIG. 8 illustrates the effect of culture components during the de-differentiation interval on subsequent T cell yield (at day 13 of culture). […] After the 3-day interval, media was exchanged to fresh X-Vivo 20 without inhibitors, high-level co-stimulation was provided (3:1 bead-to-T cell ratio), and the T cell growth cytokines IL-2 (100 IU/ml) and IL-7 (10 ng/ml) were added. At day 13 of culture, viable T cells were enumerated and the overall yield is shown relative to day 0 input number.

[9] = test system: human CD4+ and CD8+ T cells; experiment: Cytokine secretion (Luminex) of de-differentiated T cells cultured in polarization-neutral media; format: cell-based; conditions: vitamin D 0.01 nM during de-differentiation relative to 0.1 nM
Method: FIGS. 11A-11D depict the inflammatory Th1/Th17 cytokine analysis of cultured de-differentiated T cells in polarization-neutral media. […] After 3-days, the de-differentiated T cells were co-stimulated (typical bead-to-T cell ratio of 3:1) in media supplemented with the T cell growth cytokines rhu IL-2 (100 IU/ml) and rhu IL-7 (10 ng/ml), which are not potent in terms of inducing T cell polarization. After 10 days in culture (total, day 13 of culture), the T cells were harvested, washed, and re-stimulated with 3/28 beads (3:1 ratio) for 24 hr; the resultant supernatant was harvested and tested for cytokine content by Luminex multi-analyte method. All results shown are expressed as cytokine level in pg per ml per 1×10^6 cells/ml/24 hr.
FIGS. 12A-12D depicts the IL-2 and Th2-type cytokine analysis of cultured de-differentiated T cells in polarization-neutral media. […] After 3-days, the de-differentiated T cells were co-stimulated (typical bead-to-T cell ratio of 3:1) in media supplemented with the T cell growth cytokines rhu IL-2 (100 IU/ml) and rhu IL-7 (10 ng/ml), which are not potent in terms of inducing T cell polarization. […] All results shown are expressed as cytokine level in pg per ml per 1×10^6 cells/ml/24 hr.

[10] = test system: human CD4+ and CD8+ T cells; experiment: Expansion of de-differentiated T cells in Th1, TREG or hybrid Th2/TREG polarization with or without pemetrexed; format: cell-based
Method: FIG. 13 depicts favorable expansion of de-differentiated T cells in hybrid Th2/TREG polarization condition relative to Th1 polarization condition. Human CD4^+ and CD8^+ T cells were subjected to a 3-day de-differentiation procedure (“STEP 1”). […] In addition, the T cell culture in the presence of the variable polarization conditions was performed without the novel inhibitory molecule, pemetrexed (“0”) or in the presence of variable concentrations of pemetrexed, as indicated (10 nM [“10”]; 33 nM [“33”]; or 100 nM [“100”]. After a total of 10 days of culture, the n=24 cultures were harvested and live cells were enumerated and graphed above (y-axis indicated number of cells×10^6; input cell number was 1.5×10^6 cells).

[11] = test system: human CD4+ and CD8+ T cells; experiment: Flow cytometry of FOXP3, Tbet and GATA3 in extended hybrid Th2/TREG culture with temsirolimus or pemetrexed; format: cell-based; conditions: hybrid polarization condition with pemetrexed 10 nM
From the text: To evaluate these transcription factors in our manufacturing method, T cells were first subjected to the step 1 de-differentiation procedure and then re-differentiated in the hybrid TREG-Th2 culture condition (IL-2, TGF-β, and IL-4). In addition, we compared the effects of pemetrexed with a classical mTOR inhibitor.
The iTREG phenotype is considered to be unstable; as such, we evaluated the stability of T cells re-differentiated using the hybrid TREG-Th2 culture condition at delayed time points, including days 20 and 32 of culture. In addition, to test phenotype stability in a rigorous manner, between day 24 and day 32 of culture, T cells received a high level of co-stimulation (3:1 bead-to-T cell ratio) and were propagated in media without cytokines or pharmacologic agents.
FIGS. 19A-19D illustrate that extended culture of de-differentiated T cells in the hybrid Th2/TREG polarization condition containing pemetrexed results in the generation of CD4^+ T cells expressing FOXP3 and GATA3 transcription factors. […] At days 12, 20, and 32 of culture, T cells were harvested and subjected to surface flow cytometry (CD4 marker) and intra-cellular staining for the following transcription factors, FOXP3, Tbet, and GATA3. The data above show the percent CD4 cells out of the total cultured population (FIG. 19A); the percent of CD4 cells that expressed the TREG transcription factor FOXP3 (FIG. 19B); the percent of CD4 cells that expressed the Th1 transcription factor Tbet (FIG. 19C); and the percent of CD4 cells that expressed the Th2 transcription factor GATA3 (FIG. 19D).
FIGS. 20A-20D illustrate that extended culture of de-differentiated T cells in the hybrid Th2/TREG polarization condition containing pemetrexed results in the generation of CD8^+ T cells expressing FOXP3 and GATA3 transcription factors. […] At days 12, 20, and 32 of culture, T cells were harvested and subjected to surface flow cytometry (CD8 marker) and intra-cellular staining for the following transcription factors, FOXP3, Tbet, and GATA3. […]

[12] = test system: human CD4+ and CD8+ T cells; experiment: Cytokine secretion (Luminex) in extended hybrid Th2/TREG culture with temsirolimus or pemetrexed; format: cell-based
From the text: (§3) FIGS. 21A-21D illustrates that extended culture of de-differentiated T cells in the hybrid Th2/TREG polarization condition results in the generation of T cells expressing with a predominant Th2 cytokine phenotype: IL-4, IL-5, and IL-13 secretion. […] At days 12, 20, and 32 of culture, the T cells were harvested, washed, and re-stimulated with 3/28 beads (3:1 ratio) for 24 hr; the resultant supernatant was harvested and tested for cytokine content by Luminex multi-analyte method. All results shown are expressed as cytokine level in pg per ml per 1×10^6 cells/ml/24 hr. The Th2 cytokine IL-10 was also evaluated: all values were less than 20 pg/ml per 1×10^6 cells/ml/24 hr.
as §3, with “22A-22D illustrate” for “21A-21D illustrates”, “IL-2, IFN-γ,” for “IL-4, IL-5,”, “GM-CSF” for “IL-13”, “inflammatory cytokines IL-17 and TNF-α were” for “Th2 cytokine IL-10 was”

[13] = ALS patient, pre- versus post-therapy
[14] = several clones, pre- versus post-treatment
[15] = Vitamin D 1.0 nM in combination
[16] = hybrid TREG-Th2 condition, temsirolimus 1.0 μM or pemetrexed 10 nM

etanercept
TCR specificities down-regulated in the post-therapy sample [1, 13]: approximately 25% | TCR specificities up-regulated in the post-therapy sample [1, 13]: approximately 25% | T cell clonal contraction [1, 14]: more than 4 log | T cell clonal expansion [1, 14]: more than 4 log | post-treatment frequencies of contracted T cell clones ([1]; several clones, 259 to 598 pre-etanercept): 0.01

C=C1/C(=C\C=C2/CCC[C@]3(C)[C@@H]([C@H](C)CCCC(C)(C)O)CC[C@@H]23)C[C@@H](O)C[C@@H]1O [Vitamin D, Calcitriol]
Granzyme B RNA expression [2]: reduction | IFN-gamma RNA expression [2]: reduction | IL-10 RNA expression [2]: reduction | IL-7 receptor alpha RNA expression [3, 15]: not Vitamin D alone | KLF4 RNA expression [3, 15]: neither temsirolimus nor Vitamin D alone increased | KLF10 RNA expression [3, 15]: does not act alone to up-regulate | Nanog RNA expression ([3]; Vitamin D 0.1 or 1.0 nM): does not act alone to up-regulate | HIF-1-α RNA expression [4]: did not down-regulate | STAT1 RNA expression [4]: acts alone to beneficially down-regulate | T-BET RNA expression [4]: acts alone to beneficially down-regulate | p62 expression (western blot, autophagy marker) [5]: increased p62 expression | Raptor expression ([6]; Vitamin D 0.3 nM (culture 7), versus 0.1 nM): higher level of Raptor expression | Raptor inhibition ([6]; Vitamin D level reduced to 0.01 nM): sub-optimal Raptor inhibition | Rictor expression (western blot, FIG. 6) [7]: effective | T cell yield at day 13 of culture ([8]; Vitamin D concentration increased to 1.0 nM (column #6)): very low yield | T cell yield at day 13 of culture ([8]; Vitamin D concentration reduced to 0.01 nM (column #5)): very low yield | preferable concentration for T cell yield ([8]; de-differentiation interval): 0.1 nM | IFN-γ secretion [9]: somewhat higher levels | TNF-α secretion [9]: somewhat higher levels

Nc1nc2[nH]cc(CCc3ccc(C(=O)N[C@@H](CCC(=O)O)C(=O)O)cc3)c2c(=O)[nH]1 [pemetrexed]
concentration for optimal T cell re-differentiation (numerical perspective) ([10]; TREG-Th2 hybrid polarization (IL-2, TGF-β, IL-4)): 10 nM | T cell number after re-differentiation in TREG-Th2 polarization condition ([10]; most stringent de-differentiation (temsirolimus, vitamin D, anti-IL-2 receptor antibody), pemetrexed 10 nM in step 2, 10 days): sufficient T cells | T cell number after re-differentiation in pure TREG polarizing condition (IL-2 plus TGF-β without IL-4) ([10]; most stringent de-differentiation, in the presence of pemetrexed (cultures #20 and #21)): unsuccessful | T cell yield after re-differentiation in Th1-type polarization ([10]; pemetrexed not added or 10 to 100 nM, input 1.5×10^6 cells): greatly limited ability to re-differentiate | percent of CD8 cells that expressed Tbet [11]: lowest levels | percent of CD4 cells that expressed Tbet ([11]; days 12, 20, 32): most consistently reduced TBET values | percent of CD4 cells that expressed GATA3 ([11]; end of culture): highest end-of-culture Th2-associated GATA3 expression | GM-CSF secretion ([12]; hybrid TREG-Th2 condition supplemented with pemetrexed 10 nM): higher degree | IL-5 secretion [12, 16]: fully preserved | IL-13 secretion [12, 16]: fully preserved

— patent publication US12239647B2, “ALS treatment using induced regulatory T (iTREG) cells” (RAPA THERAPEUTICS, LLC, priority 2018, dated 2025)
